Assay results as given in the supplement of paper PMC10307832.

Tests used:
Experiment in all cases: relative viability (nuclei count vs DMSO), 5 days (fraction); higher = more cells survive
Gemcitabine + Navitoclax = compound: Nc1ccn([C@@H]2O[C@H](CO)[C@@H](O)C2(F)F)c(=O)n1 [Gemcitabine] + CC1(C)CCC(c2ccc(Cl)cc2)=C(CN2CCN(c3ccc(C(=O)NS(=O)(=O)c4ccc(N[C@H](CCN5CCOCC5)CSc5ccccc5)c(S(=O)(=O)C(F)(F)F)c4)cc3)CC2)C1 [Navitoclax] (partner 0.5 µM)
How it was run: (§1)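 After 5 days of treatment, lung cancer cells in 1536-well plates were fixed and stained in a single step (final 0.05% Triton X-100, 1% formaldehyde, 1 ug/ml Hoechst) and their nuclei counted on 4× images. Treatment had been applied by pin tool the day after seeding as one drug alone or as a fixed anchor-drug dose with five library-drug doses (not always all listed) in √10 steps. Relative viability is the nuclei count of treated wells divided by that of vehicle wells, and values are medians of duplicate plates.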

Gemcitabine + Dasatinib = compound: Nc1ccn([C@@H]2O[C@H](CO)[C@@H](O)C2(F)F)c(=O)n1 [Gemcitabine] + Cc1nc(Nc2ncc(C(=O)Nc3c(C)cccc3Cl)s2)cc(N2CCN(CCO)CC2)n1 [Dasatinib] (partner 0.075 µM)
How it was run: as §1

Gemcitabine + Bortezomib = compound: Nc1ccn([C@@H]2O[C@H](CO)[C@@H](O)C2(F)F)c(=O)n1 [Gemcitabine] + CC(C)C[C@H](NC(=O)[C@H](Cc1ccccc1)NC(=O)c1cnccn1)B(O)O [Bortezomib] (partner 0.002 µM)
How it was run: as §1

Gemcitabine + Luminespib = compound: Nc1ccn([C@@H]2O[C@H](CO)[C@@H](O)C2(F)F)c(=O)n1 [Gemcitabine] + CCNC(=O)c1noc(-c2cc(C(C)C)c(O)cc2O)c1-c1ccc(CN2CCOCC2)cc1 [Luminespib] (partner 0.01 µM)
How it was run: as §1

| Cell Line | relative viability (Gemcitabine + Navitoclax; first compound 0.001 µM) | relative viability (Gemcitabine + Navitoclax; first compound 0.003162 µM) | relative viability (Gemcitabine + Navitoclax; first compound 0.01 µM) | relative viability (Gemcitabine + Navitoclax; first compound 0.03162 µM) | relative viability (Gemcitabine + Navitoclax; first compound 0.1 µM) | relative viability (Gemcitabine + Dasatinib; first compound 0.001 µM) | relative viability (Gemcitabine + Dasatinib; first compound 0.003162 µM) | relative viability (Gemcitabine + Dasatinib; first compound 0.01 µM) | relative viability (Gemcitabine + Dasatinib; first compound 0.03162 µM) | relative viability (Gemcitabine + Dasatinib; first compound 0.1 µM) | relative viability (Gemcitabine + Bortezomib; first compound 0.001 µM) | relative viability (Gemcitabine + Bortezomib; first compound 0.003162 µM) | relative viability (Gemcitabine + Bortezomib; first compound 0.01 µM) | relative viability (Gemcitabine + Bortezomib; first compound 0.03162 µM) | relative viability (Gemcitabine + Bortezomib; first compound 0.1 µM) | relative viability (Gemcitabine + Luminespib; first compound 0.001 µM) | relative viability (Gemcitabine + Luminespib; first compound 0.003162 µM) | relative viability (Gemcitabine + Luminespib; first compound 0.01 µM) | relative viability (Gemcitabine + Luminespib; first compound 0.03162 µM) | relative viability (Gemcitabine + Luminespib; first compound 0.1 µM) |
| --- | --- | --- | --- | --- | --- | --- | --- | --- | --- | --- | --- | --- | --- | --- | --- | --- | --- | --- | --- | --- |
| HCC-366 | 1.03 | 1.01 | 0.656 | 0.014 | 0.0109 | 0.633 | 0.637 | 0.155 | 0.0301 | 0.0176 | 1.05 | 1.01 | 0.425 | 0.0213 | 0.0123 | – | – | – | – | – |
| HCC-827 | 0.967 | 0.815 | 0.557 | 0.357 | 0.224 | 0.295 | 0.226 | 0.319 | 0.253 | 0.186 | 0.964 | 1.08 | 0.875 | 0.607 | 0.427 | 0.777 | 0.365 | 0.386 | 0.259 | 0.16 |
| HOP-62 | 0.933 | 0.813 | 0.097 | 0.0507 | 0.0459 | 0.667 | 0.571 | 0.163 | 0.0786 | 0.0707 | 0.506 | 0.39 | 0.209 | 0.0446 | 0.0459 | 0.968 | 0.852 | 0.376 | 0.107 | 0.106 |
| IA-LM | 0.896 | 0.796 | 0.409 | 0.0336 | 0.0251 | – | – | – | – | – | 0.882 | 0.805 | 0.651 | 0.0803 | 0.0498 | – | – | – | – | – |
| LC-2-ad | 0.431 | 0.4 | 0.236 | 0.118 | 0.0927 | 0.567 | 0.226 | 0.193 | 0.167 | 0.138 | 0.998 | 0.992 | 0.476 | 0.11 | 0.0847 | 1.15 | 0.885 | 0.832 | 0.258 | 0.219 |
| LCLC-97TM1 | 0.379 | 0.182 | 0.0922 | 0.0774 | 0.106 | 0.819 | 0.803 | 0.429 | 0.159 | 0.106 | 0.752 | 0.19 | 0.0897 | 0.0533 | 0.0696 | 0.813 | 0.86 | 0.334 | 0.202 | 0.129 |
| LCLC-103H | – | – | – | – | – | 0.54 | 0.53 | 0.502 | 0.179 | 0.223 | 1.1 | 1.04 | 1.05 | 1.11 | 0.934 | 0.956 | 1.01 | 0.845 | 0.314 | 0.183 |
| LK-2 | 0.822 | 0.732 | 0.444 | 0.222 | 0.203 | 0.299 | 0.356 | 0.174 | 0.201 | 0.158 | – | – | – | – | – | 0.186 | 0.245 | 0.173 | 0.178 | 0.164 |
| LOU-NH91 | 0.717 | 0.448 | 0.292 | 0.213 | 0.213 | 0.545 | 0.28 | 0.455 | 0.244 | 0.242 | 0.498 | 0.494 | 0.423 | 0.323 | 0.313 | 0.322 | 0.322 | 0.339 | 0.182 | 0.24 |
